This is an account of results in article PMC6199309, “A therapeutic approach to pantothenate kinase associated neurodegeneration” (Nature Communications, 2018).

Each structure is given as a SMILES string. ≈ marks a conversion by molar mass, not a printed value. Entries after “also recorded” stand apart in the source; their conditions may differ. Where a name gives a salt, the structure may show the parent alone. Some results are limits rather than exact numbers.

In data set [1] the target is T1, human PANK3 (Homo sapiens, UniProt Q9H999).
T1 construct: His; made in house
Description: PANK activity assay (radiochemical, without acetyl-CoA). The class given is biochemical.
Description: The assay was linear with time and after 10 min at 37 °C the reaction was stopped by the addition of 4 μl of 10% (v/v) acetic acid. […] All the experiments were repeated twice in duplicate and the data were an average ± data range.
The IC50 values for the structure–activity study were calculated by fitting the inhibition data to a one-site model of the Michaelis–Menten equation. […] (GraphPad software) that accounts for the impact of enzyme-inhibitor binding on the free concentration of inhibitor.

Data set [2] is described as follows: Plasma stability. The class given is in vitro ADME. As to conditions: mouse, read-out: Plasma Stability T1/2.
A short description of data set [3]: Protein binding. As to conditions: rat.
A short description of data set [4]: Plasma stability. The format is in vitro ADME. The note with it: human, read-out: Plasma Stability T1/2.
Data set [5] is described as follows: Solubility at pH 7.4.
The nature of data set [6]: PAMPA-BBB. The class given is in vitro ADME. The note with it: BBB = Blood Brain Barrier, read-out: PAMPA-BBB, Avg Pe. (The PAMPA barrier holds no transporters, so it reflects passive diffusion.)
Data set [7] has as its system HEK293T cells. As to the kind of experiment: Intracellular CoA levels in transfected HEK293T cells. As to conditions: 10 μM, 24 h. The format is cell-based, human.
Description: Chloroform 1.5 ml, 1.2 ml water and 30 pmol of [^13C2]acetyl-CoA (Sigma) was added, and centrifuged at 2000×g for 10 min. The top layer was loaded on a 2-(2-pyridyl) ethyl solid phase extraction column which was equilibrated with 1 ml 50% methanol/2% acetic acid. The column was washed twice with 1 ml 50% methanol/2% acetic acid and 1 ml water. […] Samples were resuspended in 90% methanol containing 15 mM ammonium hydroxide.
Data set [8] can be described thus: Microsomal stability. As to conditions: rat, microsomes.
Data set [9] in a line: Microsomal stability. As to conditions: human, microsomes.
The subject of data set [10] is C3A cells. As to the kind of experiment: Intracellular CoA and metabolite levels in C3A cells. The class given is cell-based, human. Here is the method: HEK293T cells (ATCC, #CRL-3216) were maintained in Dulbecco’s modified Eagle’s medium (DMEM, Biowhittaker/Lonza) supplemented with 10% FCS. Human C3A [HepG2/C3A, derivative of HepG2] cells (ATCC #CRL-10741) were purchased from ATCC® and maintained in Eagle’s minimum Essential medium (ATCC) supplemented with 2 mM glutamine, 10% fetal bovine serum (FCS, Altanta Biologicals), 50 U/ml penicillin and […] streptomycin. Both cell lines were confirmed to be mycoplasma-free. […]. […] After 24 h of treatment (total 48 h after transfection) the cells were washed with PBS and harvested and subjected to either total CoA or acetyl-CoA determinations.
Prior to labeling, cells were seeded at a density of 2–3 × 10^6 in 60 mm-dishes in reconstituted DMEM without added pantothenate and allowed to adhere overnight. The labeling was initiated by replacing the medium with 2 ml of labeling medium containing 0.1% dimethylsulfoxide (DMSO; control) or 10 μM of the compound in 0.1% DMSO. Cells were incubated for 24 h, the labeling medium was removed, and cells were washed with phosphate buffered saline and lysed by sonication in 20 mM Tris-HCl, pH 7.5, 2 mM DTT, 5 mM EDTA and 50 mM NaF. The lysates were fractionated by thin-layer chromatography after removal of the cell debris by centrifugation. The samples were spotted on Silica Gel H plates and resolved with 95% ethanol:28% ammonium hydroxide (4/1, v/v). The distribution of radioactivity on the plate was quantified using a Bioscan Imager (Bioscan, Inc.) together with quantification of the total cellular radioactivity determined by a Liquid Scintillation Analyzer (PerkinElmer Tri-Carb 2910 TR). Triplicate culture dishes were labeled for each group plus a dish for each group for determination of cell counts and viability using a Nucleocounter (New Brunswick Scientific) according to the manufacturer’s directions. The experiments were repeated twice in duplicate and the data represented is an overall average ± SEM.
Cultured cells or frozen tissues were resuspended in 2 ml cold water to which 500 μl of 0.25 M KOH was added, derivatized with monobromobimane (mBBr, Life technologies) and quantified by HPLC[23]. For acetyl-CoA determinations, C3A cells were resuspended in 1 ml water, added to 2 ml of methanol and 1 ml chloroform, and incubated on ice for 15 min. Chloroform 1.5 ml, 1.2 ml water and 30 pmol of [^13C2]acetyl-CoA (Sigma) was added, and centrifuged at 2000×g for 10 min. The top layer was loaded on a 2-(2-pyridyl) ethyl solid phase extraction column which was equilibrated with 1 ml 50% methanol/2% acetic acid. The column was washed twice with 1 ml 50% methanol/2% acetic acid and 1 ml water. CoA and thioesters were eluted twice with 1 ml 95% ethanol containing 50 mM ammonium hydroxide. Samples were resuspended in 90% methanol containing 15 mM ammonium hydroxide.
The mBBr derivatized sample was fractionated by reverse-phase HPLC using a Gemini C18 3 μm column (150 × 4.60 mm) from Phenomenex. The chromatography system was a Waters e2695 separation module with a UV/Vis and fluorescence detector and controlled by Empower 3 software. Solvent A was 50 mM potassium phosphate pH 4.6, and solvent B was 100% acetonitrile. Twenty microliters of sample was injected onto the column, and the flow rate was 0.5 ml/min. The HPLC program was the following: starting solvent mixture of 90% A/10% B, 0–2 min isocratic with 10% B, 2–6 min linear gradient from 10% B to 15% B, 6–18 min concave gradient from 15% B to 40% B, 18–23 min isocratic with 40% B, 23–25 min linear gradient from 40 to 10%, and 25–30 min isocratic with 10% B. The UV/vis detector was set at 393 nm, and the fluorescence detector was set with excitation at 393 nm and emission at 470 nm. […]

A short description of data set [11]: Microsomal stability. As to conditions: mouse, microsomes.
Data set [12] is described as follows: Caco2 permeability. As to conditions: human, Caco-2; read-out: Caco2 Permeability Efflux Ratio (B2A/A2B). The class given is in vitro ADME. In general terms: Passage across Caco-2 layers is used to estimate intestinal permeability.
Data set [13] is described as follows: Protein binding. The note with it: mouse.
A short description of data set [14]: Plasma stability. The note with it: rat, read-out: Plasma Stability T1/2 (converted). The format is in vitro ADME.
The nature of data set [15]: PAMPA.
A short description of data set [16]: Protein binding. As to conditions: human.
The nature of data set [17]: Tissue pantothenate levels in mice. The format is in vivo. As to conditions: C57Bl6/J, mouse, liver; 200 mg/kg pantothenate by oral gavage, 4 h after last of 5 doses; read-out: calculated intracellular pantothenate concentration in liver. Here is the method: Plasma (10 μl) was added to 800 μl methanol and 190 μl water along with 200 pmol (β-alanyl-^13C3^15N)-pantothenate (^13C^15N-Pan, Sigma). Tissue (30–40 mg) was homogenized in 2 ml of 80% methanol, and 500 pmol of ^13C^15N-Pan was added. The samples were incubated at −80 °C for 4 h. Samples were spun at 3500xg for 10 min to pellet debris, and supernatant was transferred to a new tube and dried using a SpeedVac overnight. Samples were resuspended in water + 0.1% formic acid and spun through a Spin-X Centrifuge Tube Filter (0.22 μm Cellulose Acetate, Costar).
Pantothenate was analyzed using a Shimadzu Prominence UFLC attached to a QTrap 4500 equipped with a Turbo V ion source (Sciex). Samples were injected onto an XSelect® HSS C18, 2.5 μm, 2.1 × 150 mm column using a flow rate of 0.2 ml/min. Solvent A was 0.1% formic acid in water, and Solvent B was acetonitrile + 0.1% formic acid. […] The MRM transition for pantothenate was 220.0 / 184.1 m/z and [^13C^15N]pantothenate was 224.0 / 188.1 m/z both with a declustering potential, 35 V and collision energy, 22 V. The system was controlled by the Analyst® software (Sciex) and analyzed with MultiQuant™ 3.0.2 software (Sciex). Intracellular pantothenate was measured as pmoles/mg wet weight.

Usually IC50 stands for the concentration that gives 50% inhibition. Read a low IC50 as greater potency. As a reminder, the fraction unbound is the share of the substance not bound to proteins or other matrix. A high value points to weak binding. The term solubility denotes how much of the substance goes into solution per volume.

T1 sequence (Q9H999 whole entry): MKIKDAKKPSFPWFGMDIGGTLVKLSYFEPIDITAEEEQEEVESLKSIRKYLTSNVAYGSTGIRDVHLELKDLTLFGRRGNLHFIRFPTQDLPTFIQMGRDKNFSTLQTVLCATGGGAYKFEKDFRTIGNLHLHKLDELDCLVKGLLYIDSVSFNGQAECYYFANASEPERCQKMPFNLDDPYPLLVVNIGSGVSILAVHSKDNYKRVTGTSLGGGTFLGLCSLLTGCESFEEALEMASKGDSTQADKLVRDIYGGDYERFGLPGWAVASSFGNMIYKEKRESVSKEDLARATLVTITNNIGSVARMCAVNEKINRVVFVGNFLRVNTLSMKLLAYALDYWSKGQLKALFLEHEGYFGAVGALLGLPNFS

Compound `CC(C)c1ccc(C(=O)CN2CCN(c3ccc(C#N)nn3)CC2)cc1` [PZ-3067, 6-(4-(2-(4-isopropylphenyl)-2-oxoethyl)piperazin-1-yl)pyridazine-3-carbonitrile] returned an IC50 in [1] above 100 µM. Further, the “inhibition of PANK3 (in words)” value in [1] (negative control) is reported as “no effect; also recorded: Inactive”. Also, the half-life in data set [2] is above 50 h; in [4], above 50 h; in data set [8] it was 13.2 min; in data set [9] it was 9 min; in data set [11], 30.6 min; in data set [14], 27 h. The fraction unbound in data set [3] was 0.1; in data set [13], 0.04; in [16] it was 0.04. For the same compound, the concentration in solution in [5] (solubility) came to 18 µM (≈ 6.29 µg/mL). The Papp in [6] was 0.8 ×10⁻⁶ cm/s. In addition, the “intracellular CoA, PANK3 overexpressing HEK293T cells” value in data set [7] was “inactive”. In data set [10] (24 h, increasing concentrations (20 and 50 μM less activating)), the “total intracellular CoA levels in C3A cells” value is “did not respond”. Also, the efflux ratio in [12] was 0.5. The “PAMPA; Avg Pe” value in data set [15] is recorded as 204 10-6 cm/s.
The compound `CC(C)c1ccc(CC(=O)N2CCN(c3ccc(C#N)cn3)CC2)cc1` [PZ-2863] displayed a solubility in data set [5] of 25 µM (≈ 8.71 µg/mL).
For the compound `CC(C)(CO)[C@@H](O)C(=O)NCCC(=O)O` [pantothenate, D-pantothenic acid, hemicalcium salt], the “CoA content of C3A cells on varying pantothenate in medium” value in [10] (pantothenate alone, without PZ-2891) is given as “no effect on CoA content”. For the same compound, in data set [17], the concentration at 4 h was 24.4 µM.
In the case of `CC(C)(C)c1ccc(NC(=O)N2CCN(c3ccc(C#N)cn3)CC2)cc1` [PZ-2789, N-(4-(tert-butyl)phenyl)-4-(5-cyanopyridin-2-yl)piperazine-1-carboxamide], the half-life in [2] is above 50 h; in [4], above 50 h; in data set [8] it was 30.6 min; in data set [9], 7.8 min; in data set [11], 15.6 min; in data set [14], above 50 h. This compound also showed a fraction unbound in data set [3] of 0.02. In data set [5], this compound yielded a solubility of 1.4 µM (≈ 0.509 µg/mL). The Papp in [6] was 303 ×10⁻⁶ cm/s. Also, in data set [15], the “PAMPA; Avg Pe” value is recorded as 1232 10-6 cm/s.
